Data as given in paper PMC9867837 (Cancer letters, 2022).

Columns and labels:
[1] = Mouse liver microsome stability; assay type: in vitro ADME; conditions: liver microsomes, read-out: Metabolic Stability MLM t1/2
Protocol: (§1) Solubility, human (HLM) and mouse liver microsomal (MLM), and plasma stability studies were performed by Eurofins Cerep Panlabs and Eurofin Discovery Services (www.eurofins.com/PharmaDiscovery), while protein binding studies were performed by Sanford Burnham Prebys Chemical Biology & Drug Discovery Core using standard protocols.

[2] = Human liver microsome stability; assay type: in vitro ADME; conditions: liver microsomes, read-out: Metabolic Stability HLM t1/2
Protocol: as §1

[3] = tested on: pS727Stat3, pYStat1, pY416Src, pY1068EGFR, pShc, pErk1/2MAPK, pS473Akt, and pJAK2; test: Western blotting for other signaling proteins in TNBC cells; assay type: cell-based, human; conditions: MDA-MB-231 and MDA-MB-468, 0.5–3 μM H182 for 2 h
Protocol: These studies were performed as previously described. Details are presented in Supplementary Information, “Methods”.
We sought to assess any non-specific effects of the azetidine compounds. […] Samples of equal total protein were subjected to SDS-PAGE and Western blotting analysis. […] The total protein levels were unchanged, and the tubulin, β-actin, and GAPDH levels show equal protein loading.
These studies were performed as previously described [1 -3] . Briefly, snap-frozen tumor tissues or cultured cells treated or not were harvested and whole-cell or tissue lysates were prepared in radioimmunoprecipitation assay (RIPA) buffer. Samples of equal total protein were subjected to SDS - PAGE and immunoblotting analysis. Primary antibodies used were anti- Stat3, pY705-Stat3, pS727Stat3, […]
Akt, pT202/Y204Erk1/2 (p44/42), Erk1/2, PARP , caspase 3, c-Myc, survivin, VEGF, β-actin, α/β-tubulin, and GAPDH. For the studies of the effects of cell density and confluence on pY705Stat3, cells were seeded […] in culture dishes. The next day, cells were untreated (DMSO control, […]
concentration of H182 for 6 h and then treated with 0- 100 nM docetaxel or 0-20 µM cisplatin for a total of 72 h. Viable cell numbers were assessed by a CyQuant cell proliferation kit according to the manufacturer’s instructions (Thermo/Life Technologies Corp, Carlsbad, CA). […]

[4] = biological target: T1, wtpYStat3 (Homo sapiens, UniProt P40763); test: EMSA with purified wild-type pYStat3; assay type: biochemical; conditions: 3 μM H182, 30 min
T1 construct: made in house; host or cells: E. coli BL21(DE3) TKB1 (inducible tyrosine kinase)
T1 sequence (P40763 127-711): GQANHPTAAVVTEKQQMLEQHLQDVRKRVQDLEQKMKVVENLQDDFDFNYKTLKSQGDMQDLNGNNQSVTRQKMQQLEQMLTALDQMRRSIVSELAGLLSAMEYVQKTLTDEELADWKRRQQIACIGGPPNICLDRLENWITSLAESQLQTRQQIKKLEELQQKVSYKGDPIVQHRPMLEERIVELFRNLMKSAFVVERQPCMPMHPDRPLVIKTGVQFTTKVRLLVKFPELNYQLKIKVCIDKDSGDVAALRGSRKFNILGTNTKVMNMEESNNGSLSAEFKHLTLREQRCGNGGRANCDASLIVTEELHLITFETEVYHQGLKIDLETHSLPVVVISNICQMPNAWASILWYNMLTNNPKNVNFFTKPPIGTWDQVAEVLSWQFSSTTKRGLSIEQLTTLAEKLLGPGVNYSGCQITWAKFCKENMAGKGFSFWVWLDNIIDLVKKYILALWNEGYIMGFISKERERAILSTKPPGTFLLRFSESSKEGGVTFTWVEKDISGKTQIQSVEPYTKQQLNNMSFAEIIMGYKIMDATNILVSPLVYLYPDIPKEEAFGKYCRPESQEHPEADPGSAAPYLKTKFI
Source text: This construct was used to generate the mutants, Stat3C328A, Stat3C426A, Stat3C468A, and Stat3C542S, as described in detail in Supplementary Information “Methods”.
The expression of un-phosphorylated and tyrosine phosphorylated His-tagged recombinant wtStat3 and mutant Stat3 proteins in BL21 (DE3) bacterial cells is described in detail in Supplementary Information “Methods”.
Given the MS data, we conducted site-directed mutagenesis analysis for the effects of Cys mutations (Cys-to-Ala or Cys-to-Ser mutations) on the inhibitory activities or potencies of the compounds. […]
In another case, the nuclear extract was pre-incubated with the radiolabeled probe for 30 min at 30 °C prior to incubation with increasing concentration of H182 at room temperature for 30 min and subjecting to EMSA analysis. Bands corresponding to Stats DNA- binding activities were scanned and quantified using ImageJ and plotted as a percentage of control (vehicle) against the concentration of the inhibitor, from which the IC50 values were derived . […]
These studies were performed as previously reported using the v-Src -transformed NIH3T3/v-Src fibroblasts [1 -5] . […] Luciferase activity was normalized to total protein concentration of cell lysate, which was determined by Bradford assay (Bio-Rad, Hercules, CA) . […]

Question: Which half-life [1] does the source give for O=C([C@H]1CCN1S(=O)(=O)c1c(F)c(F)c(F)c(F)c1F)N(Cc1ccc(C2CCCCC2)cn1)c1ccc2c(=O)[nH]ncc2c1 [Compound H182] here?
Answer: Its half-life is over 150 min.

Question: And the half-life [2]?
Answer: Its half-life is 21 min.

Question: What about the “Effect on constitutive or EGF-induced pS727Stat3, pYStat1, pY416Src, pY1068EGFR, pShc, pErk1/2MAPK, pS473Akt, and pJAK2” value [3] of the same compound?
Answer: Its value is “no inhibitory effect”.

Question: And the “Effect on DNA-binding activity of wtpYStat3” value [4]?
Answer: Its value is “strong inhibition”.
